Data reported in US10588316B2 (priority 2015, dated 2020).

What was measured:
Fusarium graminearum = test: microbe, parasite or virus in culture; type: cell-based; settings: F.g sensitive strains
Fusarium asiaticum = test: microbe, parasite or virus in culture; type: cell-based; settings: F.a sensitive strains

CCOC(=O)C(C#N)=C(N)c1ccccc1 [phenamacril]
Median Effective Concentration (EC50) for Growth Inhibition (Fusarium graminearum): 0.165 µg/mL
Median Effective Concentration (EC50) for Growth Inhibition (Fusarium asiaticum): 0.165 µg/mL
